Patent US20260200923A1, “HETEROCYCLIC COMPOUNDS TARGETING THE NUDT5 PROTEIN” (Oxford University Innovation Limited, priority 2022, published 2026)
“Also recorded” adds a separate entry of the source. One block for each molecule: values may come before it.

How the values were obtained:
[1] = molecular target: T1, NUDT5-CRBN interaction (Homo sapiens, UniProt Q96SW2+Q9UKK9); assay: NanoBRET ternary complex formation (protein-protein interaction) assay; format: cell-based; conditions: HEK293 cells, 4 h
T1 construct: expressed in transfected cells; host or cells: HEK293
Description: For NanoBRET protein-protein interaction assay, NanoBRET Nano-Glo Detection System (N1662, Promega) was used according to the manufacturer's instruction. In brief, 220,000 HEK293 cells/ml was seeded in a 6-well plate. After 6 h, N-terminal nanoLuc NUDT5 and Halo-tag CRBN were then transfected into the cells using Fugene HD transfection reagent (E2312, Promega). The transfected HEK293 (220,000 cells/ml) were then replated onto a 384-well plate containing compounds. After 4 h incubation, NanoLuc substrate was added into each well and the signals were measured by PHERAstar Microplate Reader.
(§1) Compounds were dispensed in the 384-well plates by using Echo Acoustic Dispenser.

[2] = molecular target: T2, NUDT5 (Homo sapiens, UniProt Q9UKK9); assay: NUDT5 degradation by Western blot in HEK293 cells; format: cell-based; parameters: endogenous in cells; host or cells: HEK293 (also CRBN knock-out HEK293 for A13)
Description: For Western blots, proteins were separated on polyacrylamide gels with SDS running buffer (50 mM Tris, 380 mM Glycine, 7 mM SDS) and transferred to PVDF membranes. All membranes were then blocked with blocking buffer (5% w/v milk powder, BioRad) in TBST (50 mM Tris (tris(hydroxymethylaminomethane), 150 mM NaCl, 0.05% (v/v) Tween 20, adjusted to pH 7.6) Proteins were probed with antibodies against phospho-AMPK (50081S, 1:2000, Cell Signaling Technologies), AMPK (5832S, 1:2000, Cell Signaling Technologies), PML (ab179466, 1:1000, abeam), PARP8 (NBP213733, 1:1000, Novus Biologicals), ATF2/7 (82870, 1:1000, Cell Signaling Technologies), alpha-Tubulin (ab7291, 1:1000, Abeam), phospho-UBTF (ab182583, 1:1000, abeam), UBTF (HPA006385, 1:1000, Sigma), RBM38 (AV40862, 1:1000, Sigma), or NUDT5 (ab129172, 1:1000, abeam), detected by HRP (horse-radish peroxidase) conjugated donkey anti-rabbit IgG antibody (Pierce) or donkey anti-mouse antibody IgG antibody (Pierce) and visualized with Clarity ECL Western Blotting substrate (BioRad), according to provided protocol.

[3] = molecular target: T2, NUDT5; assay: AMP-Glo catalytic assay, NUDT5; format: biochemical; conditions: 2 nM NUDT5, ADPr substrate, 20 minutes, mean±SD
Description: (§2) To identify alternative X groups, a screening exercise was performed. […] Inhibition activities of the compounds were determined using AMP-Glo system (Promega). The compounds were diluted from 50 μM to 0 μM in a final reaction containing 20 mM Hepes, 100 mM NaCl, 0.5 mM TCEP, 1 mM MgCl2 and 0.1% BSA, pH 7.4. The reactions were performed in 1536 well plate in […] reaction volume with 2 nM of NUDT5 and NUDT14, and […] of ADPr as the substrate. The final DMSO concentration was 0.5% for all reactions. NUDT5 reactions were incubated for 20 minutes while NUDT14 reactions were carried out for 1 hour at room temperature. […] The reactions were further incubated with the 4 μl of Detection solution for 1 hour at room temperature. Luminescence signals were then measured in PHERAstar FSX plate reader. Experiments were done in triplicate sets and data were analysed by GraphPad Prism 9. Data are represented as the mean±SD of three biological experiments: […]

[4] = molecular target: T3, NUDT14 (Homo sapiens, UniProt O95848); assay: AMP-Glo catalytic assay, NUDT14; format: biochemical
T3 sequence (O95848 1-222): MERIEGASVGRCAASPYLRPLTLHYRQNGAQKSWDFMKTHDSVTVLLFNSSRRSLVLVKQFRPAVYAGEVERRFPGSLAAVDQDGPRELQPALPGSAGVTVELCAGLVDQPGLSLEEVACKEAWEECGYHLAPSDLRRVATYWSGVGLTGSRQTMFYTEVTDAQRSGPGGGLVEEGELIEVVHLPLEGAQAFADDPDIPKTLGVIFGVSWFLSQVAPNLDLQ
Description: as §2

[5] = tested on: HAP-1 cells; assay: 6-thioguanine assay (CellTiter-Glo viability); format: cell-based; conditions: 0.2 μg/ml 6-thioguanine, 72 h; HAP1 (and NB4, FIG. 11)
Description: NB-4 and HAP1 cells (1000 cells/well in 40 uL) were seeded onto a 384-well plate containing compounds. DMSO or 0.2 μg/ml 6-thioguanine (A4882, Sigma-Aldrich) was added into respective wells. After 72 h incubation cell viability was measured by using CellTiter-Glo 2.0 Assay (G9242, Promega). Compounds in the 384-well plates were prepared by using Echo Acoustic Dispenser.

[6] = tested on: MTHFD1^K56R cells; assay: growth of MTHFD1^K56R cells in adenosine-containing media; format: cell-based; conditions: for effect on adenosine toxicity / viability: adenosine-containing media, 72 h
Description: HAP1 (KBM7-derived, Horizon Discovery, C859), and HAP1 MTHFD1^KO, MTHFD1^K56R, and MTHFD1^K386E cell lines were cultured in Iscove's Modified Dulbecco's Medium (IMDM, Sigma), supplemented with 10% Fetal Bovine Serum (FBS, Sigma) and 1% Penicillin/Streptomycin (P/S, Sigma).
MTHFD1^KO cells in dialyzed FBS media were treated with a single nucleotide or folic acid metabolite for 72 hours. Cells were then stained with Hoechst, imaged, and counted using an Operetta (Perkin Elmer). For the AMPK activator studies, cells were stained with Hoechst, imaged, and counted using an Opera (Perkin Elmer). Similarly, MTHFD1^K56R cells in dialyzed FBS media were treated with adenosine for 72 hours. Cells were then stained with Hoechst, imaged, and counted using an Operetta (Perkin Elmer).

[7] = tested on: MTHFD1^K386E cells; assay: growth of MTHFD1^K386E cells with adenosine; format: cell-based; conditions: synthetase mutant cells
Description: HAP1 (KBM7-derived, Horizon Discovery, […]), and HAP1 MTHFD1^KO, MTHFD1^[…], and MTHFD1^[…] cell lines were cultured in Iscove's Modified Dulbecco's Medium (IMDM, Sigma), supplemented with 10% Fetal Bovine Serum (FBS, Sigma) and 1% Penicillin/Streptomycin (P/S, Sigma).

[8] = molecular target: T4, luciferase-tagged NUDT5 (Homo sapiens, UniProt Q9UKK9); assay: NanoBRET target engagement assay; format: cell-based; conditions: live cells, 2 h
T4 construct: expressed in transfected cells; host or cells: HEK293T
Description: For NanoBRET target engagement assay, intracellular TE Nano-Glo substrate/inhibitor (N2161, Promega) was used according to the manufacturer's instruction. In brief, 200,000 HEK293T cells/ml was seeded in a T-75 flask. N-terminal NanoLuciferse NUDT5 was reverse transfected into the cells using Fugene HD transfection reagent (E2312, Promega). After 24 h the transfected HEK293 (200,000 cells/ml) were replated onto a 384-well plate containing compounds. 2.5 nM NU008116a was used as the final tracer concentration. After 2 h, NanoLuc substrate and inhibitor was added into each well and the signals were measured by PHERAstar Microplate Reader.
as §1

ternary complex formation between NUDT5 and CRBN [1]: induced the ternary complex | NUDT5 degradation at 100 nM, 20 h (%) ([2]; 100 nM, 20 h): 39% | NUDT5 degradation ([2]; Western blot, FIG. 12A): reasonable NUDT5 degrader
Compound: Cn1c(=O)c2c(nc(N3CCN(CC4CCN(c5ccc6c(c5)C(=O)N(C5CCC(=O)NC5=O)C6=O)CC4)CC3)n2Cc2nnc(-c3ccc(Cl)c(Cl)c3)o2)n(C)c1=O (stereo not drawn) [Compound 070, 7-((5-(3,4-dichlorophenyl)-1,3,4-oxadiazol-2-yl)methyl)-8-(4-((1-(2-(2,6-dioxopiperidin-3-yl)-1,3-dioxoisoindolin-5-yl)piperidin-4-yl)methyl)piperazin-1-yl)-1,3-dimethyl-3,7-dihydro-1H-purine-2,6-dione]

IC50 [3]: 375 ± 12 nM | IC50 [4]: 974 ± 26 nM
Compound: C=CC(=O)N1CCC[C@@H](n2nc(-c3ccc(Oc4ccccc4)cc3)c3c(N)ncnc32)C1 [Ibrutinib, reference compound]

Compound: Cn1c(=O)c2c(nc(N3CCNCC3)n2Cc2nnc(-c3ccc(Cl)c(Cl)c3)o2)n(C)c1=O [TH5427, reference compound]
rescue of 6-TG toxicity [5]: did not show a rescue; also recorded: neither the negative control nor TH5427 gave any significant effects | effect on adenosine toxicity / viability [6]: did not affect the viability

Compound: Nc1ncnc2c1ncn2[C@@H]1O[C@H](CO)[C@@H](O)[C@H]1O [adenosine]
effect of addition on growth [7]: enhanced the growth | effect of addition on proliferation ([6]; cyclohydrolase mutant cells, 50 μM adenosine): caused a strong antiproliferative response

Compound: CN1C(=O)CCC(N2C(=O)c3ccc(N4CCN(CC5CCN(C(=O)N6CCN(c7nc8c(c(=O)n(C)c(=O)n8C)n7Cc7nnc(-c8ccc(Cl)c(Cl)c8)o7)CC6)CC5)CC4)cc3C2=O)C1=O (stereo not drawn) [dNUDT5nc, 7-((5-(3,4-dichlorophenyl)-1,3,4-oxadiazol-2-yl)methyl)-1,3-dimethyl-8-(4-(4-((4-(2-(1-methyl-2,6-dioxopiperidin-3-yl)-1,3-dioxoisoindolin-5-yl)piperazin-1-yl)methyl)piperidine-1-carbonyl)piperazin-1-yl)-3,7-dihydro-1H-purine-2,6-dione]
NUDT5 engagement / recruitment [8]: engaged their cognate target NUDT5 in live cells | rescue of 6-TG toxicity [5]: neither the negative control nor TH5427 gave any significant effects | effect on adenosine toxicity / viability [6]: did not cause any effects
